Assay results published in patent publication US20090253721A1, “Combined treatment with radiation and an epidermal growth factor receptor kinase inhibitor” (priority 2004, published 2009).

Experiments:
UM-SCC6 xenografts = assay: Tumor growth in athymic nude mice, UM-SCC6 xenografts
Protocol: (§3) Erlotinib was administered by oral gavage once daily for 3 weeks. Radiation treatment was delivered twice a week for 3 weeks using custom mouse jigs designed to expose only the tumor bed to radiation.
(§4) Combination studies determining apoptosis induction were evaluated using Student's t test with the resultant P value representing a two-sided test of statistical significance.

UM-SCC6 cells [1] = assay: PARP cleavage by western blot, UM-SCC6; assay type: cell-based, human; conditions: erlotinib/radiation combination, data not shown
PCNA = assay: Immunohistochemical determination of PCNA in H226 xenografts; assay type: in vivo, athymic mice
Rad51 = assay: Radiation-induced Rad51 expression, immunoblot; assay type: cell-based, human; conditions: pretreated with 1 μM erlotinib for 24 hrs; H226 and UM-SCC6; 6 Gy
Protocol: (§1) Following treatment, cells were lysed with RIPA buffer and sonicated in complete proteinase inhibitor cocktail (Roche) and sodium orthovanadate. Fifteen μg of protein extracts were mixed with SDS sample buffer and electrophoresed onto a 10% SDS-polyacrylamide gel under reducing conditions. The separated proteins were transferred onto nitrocellulose membranes (Amersham Pharmacia Biotech, Piscataway, N.J.). The membrane was incubated for 1 hour in blocking buffer (Tris-buffered saline with 0.1% Tween (TBS-T) and 5% nonfat dry milk). The membranes were then incubated with specific primary antibodies. After washing three times with TBS-T buffer, the membrane was incubated with horseradish peroxidase-linked secondary antibody (Amersham Pharmacia Biotech, Piscataway, N.J.) at 1:5000 dilution for 1 hour at room temperature. The signals were visualized with the ECL+ detection system and autoradiography.

UM-SCC1 cells [2] = assay: Radiation clonogenic survival, UM-SCC1; assay type: cell-based, human; conditions: erlotinib 0.1 μM for 3 days before irradiation, 3, 6, and 9 Gy (p<0.01)
Protocol: (§5) Survival following radiation exposure was defined as the ability of the cells to maintain their clonogenic capacity and to form colonies. Briefly, after exposure to radiation, cells were trypsinized, counted and seeded for colony formation in 35-mm dishes at 50-5000 cells/dish. After incubation intervals of 14-21 days, colonies were stained with crystal violet and manually counted. Colonies consisting of 50 cells or more were scored, and 5 replicate dishes containing 10-150 colonies/dish were counted for each treatment. Experiments were performed in duplicate.

[3] = test system: UM-SCC6 and H226 cell lines; assay: Cell cycle analysis by flow cytometry (propidium iodide); assay type: cell-based, human
Protocol: Cells were harvested after 72 hours exposure of erlotinib, 24 hours exposure to 6 Gy radiation, or in combination. […] After removal of ethanol by centrifugation, cells were then incubated with phosphate-citric acid buffer [0.2 M Na2HPO4 (pH 7.8), and 4 mM citric acid] at room temperature for 45 min. After centrifugation, cells were then stained with a solution containing 33 μg/ml PI (propidium iodide), 0.13 mg/ml RNase A, 10 mM EDTA, and 0.5% Triton X-100 at 4° C. for 24 hours. Stained nuclei were analyzed for DNA-PI fluorescence using a Becton Dickinson FACScan flow cytometer. Resulting DNA distributions were analyzed by Modfit (Verity Software House, Inc., Topsham, Me.) for the proportion of cells in sub-G0, G1, S, and G2-M phases of the cell cycle.

UM-SCC1 cells [4] = assay: PARP cleavage by western blot, UM-SCC1; assay type: cell-based, human
Protocol: as §1

UM-SCC6 cells [5] = assay: Apoptosis by caspase activity, UM-SCC6; assay type: cell-based, human; conditions: erlotinib 1 μM combined with radiation 6 Gy, p<0.05
Protocol: (§2) Cells were seeded in 100-mm dishes at a density of 6×10^5 cells per plate and upon treatment, were harvested by trypsinization, centrifuged, and the cell pellet re-suspended to a final concentration of 2×10^6 cells/ml. Caspase activity was analyzed by fluorescence spectroscopy according to the manufacturer's protocol (Chemicon International). Briefly, the 300 μL of cells were incubated with 1× Fluorescein labeled pan-caspase inhibitor FAM-VAD-FMK (Ekert, P. G., et al. (1999) Cell Death Differ. 6(11):1081-6) at 37° C. for 1 hr in a humidified atmosphere of 5% CO2. Cells were then washed twice with wash buffer, finally resuspended in 320 μL PBS. A 100 μL aliquot of the cell suspension was transferred to a black 96-well plate in triplicate. Fluorescence was analyzed on a SpectraMax fluorescence plate reader at 550 nm excitation and 600 nm emission wavelengths.

H226 cells [6] = assay: Apoptosis by caspase activity, H226; assay type: cell-based, human; conditions: erlotinib 1 μM combined with radiation 6 Gy
Protocol: as §2

[7] = test system: Egr-1, CXCL1, and IL-1β expression; assay: Validation of gene expression by quantitative RT-PCR and western blot; assay type: cell-based, human; conditions: UM-SCC6; erlotinib 1.0 μM x 24 hrs pretreatment, 6 Gy
Protocol: as §1
To further validate the microarray findings, we performed quantitative real-time PCR (QPCR) using the SYBR green dye as previously described (Kleer, C. G., et al. (2003) Proc. Natl. Acad. Sci. USA 100(20):11606-11611). Briefly, 1 μg of total RNA isolated from each sample was reverse transcribed into first strand cDNA. Threshold levels were set for each experiment during the exponential phase of the PCR reaction using the SDS v 1.7 software (Applied Biosystems), and the quantity of DNA in each sample was calculated by interpolating its Ct value versus a standard curve of Ct values obtained from serially diluted cDNA from a mixture of all of the samples using Microsoft Excel. All standard curves had R2 values ≧0.99 over three orders of magnitude. The calculated quantity of the target gene for each sample was then divided by the average calculated quantity of the housekeeping genes glyceraldehyde-3 phosphate dehydrogenase (GAPD) and hydroxymethylbilane synthase (HMBS) corresponding to each sample to give a relative expression of the target gene for each sample. All oligonucleotide primers were synthesized by Integrated DNA Technologies. […]

H226 xenografts = assay: Tumor growth in athymic nude mice, H226 xenografts
Protocol: as §3, §4

[8] = test system: HNSCC and NSCLC cell lines; assay: Apoptosis by fluorescein labeled caspase inhibitor (caspase activity), cell lines pooled; assay type: cell-based, human; conditions: erlotinib alone 1 μM x 48 hrs
Protocol: as §2

UM-SCC1 cells [9] = assay: Apoptosis by caspase activity, UM-SCC1; assay type: cell-based, human; conditions: erlotinib 1 μM combined with radiation 6 Gy
Protocol: as §2

H226 cells [10] = assay: Radiation clonogenic survival, H226; assay type: cell-based, human; conditions: erlotinib 0.1 μM for 3 days before irradiation, 6 and 9 Gy (p<0.05)
Protocol: as §5

refractory NSCLC = refractory NSCLC patients receiving erlotinib; cited from earlier work
[11] = erlotinib alone 0.8 mg daily oral gavage, 3 weeks
[12] = erlotinib combined with radiation (2 Gy twice per week), 55-day observation, p<0.05

Compound: C#Cc1cccc(Nc2ncnc3cc(OCCOC)c(OCCOC)cc23)c1 [erlotinib, [6,7-bis(2-methoxyethoxy)-4-quinazolin-4-yl]-(3-ethynylphenyl) amine]
- tumor growth (UM-SCC6 xenografts; [11]): modest inhibition of tumor growth
- tumor growth inhibition, nature of combination effect (UM-SCC6 xenografts; [12]): additive
- enhancement in PARP cleavage (UM-SCC6 cells [1]): even more pronounced
- number of proliferating cells (PCNA staining) (PCNA; combined erlotinib/radiation): smallest
- number of proliferating cells (PCNA staining) (PCNA; erlotinib alone): intermediate
- radiation-induced increase in Rad51 expression (Rad51): attenuated significantly
- radiosensitization (reduction in clonogenic survival) (UM-SCC1 cells [2]): modest but consistent radiosensitization
- S phase fraction ([3]; erlotinib (0.1 μM) combined with radiation (6 Gy)): further reduction in the S phase fraction
- cell cycle phase distribution, G1 ([3]; erlotinib alone (0.1 μM)): accumulation of cells in G1
- number of cells in S phase ([3]; erlotinib alone (0.1 μM)): reduced the number of cells in S phase
- PARP cleavage (UM-SCC1 cells [4]; erlotinib 1 μM combined with radiation 6 Gy, UM-SCC1): Further increase in PARP cleavage
- PARP cleavage (UM-SCC1 cells [4]; erlotinib alone 1 μM, 10 and 24 hours following treatment): modest PARP cleavage
- increase in apoptosis induction, combined treatment (UM-SCC6 cells [5]): supra-additive increase in apoptosis induction
- increase in apoptosis, combined treatment (H226 cells [6]): additive increase in apoptosis
- radiation-induced enhancement of CXCL1 expression [7]: inhibited
- radiation-induced enhancement of Egr-1 expression [7]: inhibited
- radiation-induced enhancement of IL-1β expression [7]: inhibited
- tumor growth (H226 xenografts; [11]): modest inhibition of tumor growth
- tumor growth inhibition, nature of combination effect (H226 xenografts; [12]): synergistic
- increase in apoptosis as determined by caspase activity [8]: 10-25%
- increase in apoptosis, combined treatment (UM-SCC1 cells [9]): additive increase in apoptosis
- radiosensitization (reduction in clonogenic survival) (H226 cells [10]): modest but consistent radiosensitization
- survival (refractory NSCLC): survival extension
